Reference: article PMC5787524, “Discovery of a FLT3 inhibitor LDD1937 as an anti-leukemic agent for acute myeloid leukemia” (Oncotarget, 2017)
“Also recorded” adds a separate entry of the source.

What was measured:
[1] = tested on: MV-4-11 xenograft; experiment: MV-4-11 mouse tumor xenograft; type: in vivo, BALB/c nu/nu mice
Experimental: MV-4-11 cells were inoculated subcutaneously in the flank of female BALB/c nu/nu (athymic nude) mice (5 × 10^6 cells per mouse). […] The drug or the control PBS was administered daily for a duration of 21 days. Tumor sizes were measured twice a week for 21 days, and the tumor volumes were calculated with the following formula: V (volume) = X (length) × D (width)^2/2. After 21 days, the mice were sacrificed, and the tumor weights were measured.

[2] = tested on: cellular senescence; experiment: Senescence-associated β-galactosidase assay (SA-β-gal); type: cell-based; conditions: data not shown
[3] = tested on: leukemic cells; experiment: Differentiation of leukemic cells (Wright-Giemsa staining); type: cell-based; conditions: data not shown
[4] = tested on: Jurkat cells; experiment: Cell viability / growth inhibition (EZ-Cytox), Jurkat; type: cell-based; conditions: Homo sapiens, Table 2, 72 h
Experimental: MV-4-11 human acute myeloid leukemia cells were purchased from the American Type Culture Collection (ATCC, Rockville, MD, USA, CRL-9591), and the cells were cultured in IMDM medium (Sigma Co., St. Louis, MO, USA) supplemented with 10% fetal bovine serum, 1% penicillin/streptomycin and 4 mM L-glutamine (Life Technology, Grand Island, NY). Jurkat (human acute T lymphocytic leukemia, ATCC TIB-152) and K562 (human chronic myelogenous leukemia, ATCC CCL-243) cells were cultured in RPMI-1640 (Sigma Co.), and MCF7 (human breast adenocarcinoma, ATCC HTB-22) and PC-3 (human prostate adenocarcinoma, ATCC CRL-1435) cells were cultured in DMEM (Sigma Co.) medium supplemented with 10% fetal bovine serum and 1% penicillin/streptomycin. The cultured cells were incubated at 37°C with 5% CO2. Cell viability was assessed with a tetrazolium-based assay using the EZ-Cytox Cell Viability Assay kit (DaeilLab, Korea). Briefly, 2,000 ∼ 15,000 cells were plated in 96-well flat bottom plates in 100 µl of medium. The next day, the cells were treated with compounds along with dimethyl sulfoxide (DMSO, Fisher, Waltham, MA, USA) as a negative control. […] After incubation, the optical density (OD) was measured at a wavelength of 450 nm with a Victor multilabel reader (Perkin Elmer, Waltham, MA, USA). The IC50 was calculated with nonlinear regression using Prism version 5.01 (GraphPad, La Jolla, CA, USA).

[5] = tested on: PARP cleavage in MV-4-11 cells; experiment: PARP cleavage western blot; type: cell-based, human; conditions: MV-4-11, 24 h
Experimental: (§1) Cells were lysed in SDS Lysis buffer (12 mM Tris-Cl, pH 6.8, 5% glycerol, and 0.4% SDS), and the protein concentrations were measured with the SMART BCA Protein Assay kit (iNtRON Biotechnology, Korea). The proteins were resolved with SDS-polyacrylamide gel electrophoresis followed by transfer to PVDF membranes (Millipore, Billerica, MA, USA) and incubated overnight with the appropriate antibodies. The antibodies used were as follows: phospho-STAT5 (p-STAT5; rabbit polyclonal IgG; #9351, 1:1,000), cyclin D1 (rabbit polyclonal IgG; #2922, 1:1,000), and PARP (rabbit polyclonal IgG; #9542, 1:1,000) from Cell Signaling Technology (Danver, MA, USA), STAT5 (rabbit polyclonal IgG; #sc-835, 1:1,000) from Santa Cruz (Santa Cruz, CA, USA), and β-actin (mouse monoclonal IgG; # A5441, 1:5000) from Sigma-Aldrich. Goat anti-rabbit IgG (#111-035-003; 1;5,000) and anti-mouse IgG (#115-035-033; 1:5,000) secondary antibodies were obtained from Jackson ImmunoResearch Laboratories, Inc. (West Grove, PA, USA).

[6] = tested on: cyclin D1 level in MV-4-11 cells; experiment: Cyclin D1 western blot; type: cell-based, human; conditions: MV-4-11, 16 h, from as low as 10 nM
Experimental: as §1

[7] = tested on: MV-4-11 cells; experiment: Cell viability / growth inhibition (EZ-Cytox), MV-4-11; type: cell-based, human; conditions: for GI50: Homo sapiens, MV4-11, 72 h
Experimental: The cultured cells were incubated at 37°C with 5% CO2. Cell viability was assessed with a tetrazolium-based assay using the EZ-Cytox Cell Viability Assay kit (DaeilLab, Korea). Briefly, 2,000 ∼ 15,000 cells were plated in 96-well flat bottom plates in 100 µl of medium. The next day, the cells were treated with compounds along with dimethyl sulfoxide (DMSO, Fisher, Waltham, MA, USA) as a negative control. […] After incubation, the optical density (OD) was measured at a wavelength of 450 nm with a Victor multilabel reader (Perkin Elmer, Waltham, MA, USA).

SA-β-gal (cellular senescence) [2]: did not change
Structure (SMILES): COC(=O)c1ccc2c(c1)/C(=C1/Nc3ccccc3/C1=N\OCCN1CCNCC1)C(=O)N2.Cl.Cl [LDD1937, methyl (2Z,3E)-2′-oxo-3-((2-(piperazin-1-yl)ethoxy)imino)-[2,3′-biindolinylidene]-5′-carboxylate dihydrochloride]
tumor weight ([1]; 5 mg/kg intravenous daily, day 21, vs control): significant reduction
tumor volume / tumor mass ([1]; 10 mg/kg intravenous daily for 21 days): the tumor disappeared from day 3; also recorded: completely disappear from day 3
body weight ([1]; 5 and 10 mg/kg intravenous daily, administration period, between groups): no significant difference in body weight
tumor volume and weight ([1]; 5 and 10 mg/kg intravenous, vs control): significantly reduced
differentiated cells (Wright-Giemsa staining) [3]: differentiated cells were not observed
GI50 [4]: 1440 ± 290 nM
cleaved PARP ([5]; 1 nM): an increase in the cleaved PARP was detected
PARP cleavage ([5]; western blot): induced PARP cleavage in a dose-dependent manner
cyclin D1 level [6]: dose-dependent reduction of the cyclin D level
enhancement of MV-4-11 activity compared to the initial compound 1 [7]: 40 fold
GI50 ([7]; 72 h, called IC50 in supplementary text): 1 ± 0.15 nM
GI50 ([7]; Table 2, 72 h, mean ± S.D.): 1.2 ± 0.2 nM
